{"source": "patent US10927070B2", "about": "“Compositions and methods for treating cancer” (Cedars-Sinai Medical Center, priority 2016, dated 2021)", "key": {"[1]": {"experiment": "Solubility relative to CSRM617", "assay_type": "physicochemical"}, "22Rv1 cells": {"system": "22Rv1 cells", "experiment": "CellTiter-Glo cell viability of CSRM617 derivatives in 22Rv1", "assay_type": "cell-based, human", "conditions": "for potency (IC50) compared with compound CSRM617: 100 μM to 0.2 μM, 48 hours; for cell viability: 48 hours post treatment, CellTiter-Glo", "protocol": "FIG. 17A: 22Rv1 cells were plated at a density of 1000 cells per well, in triplicate, in a 96 well plate. The next day cells were exposed to compound CSRM617, several derivatives or vehicle (1% DMSO) at a concentration of 25 μM. Viability was measured 48 hours post treatment using CellTiter-Glo Luminescent Cell Viability Assay (Promega). FIG. 17B: 22Rv1 cells were plated at a density of 1000 cells per well, in triplicate, in a 96 well plate. The next day, TO reading was collected and cells were exposed to compound CSRM617, the derivatives or vehicle (1% DMSO) at 2-fold concentration ranging from 100 μM to 0.2 μM. Viability was measured 48 hours post treatment using CellTiter-Glo Luminescent Cell Viability Assay (Promega)."}, "[2]": {"biological_target": "T1, purified recombinant OC2 HOX domain (Homo sapiens, UniProt O95948)", "T1 construct": "made in house", "T1 sequence (O95948 426-485 limits assumed)": "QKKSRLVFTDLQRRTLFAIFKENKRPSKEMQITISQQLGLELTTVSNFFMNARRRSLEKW", "experiment": "Surface plasmon resonance (SPR) binding of compound to immobilized OC2-HOX domain", "protocol": "FIG. 13 depicts in accordance with various embodiments of the invention, Compound CSRM617 binds to ONECUT2 in a dose-dependent manner. To measure binding features of CSRM617, the OC2-HOX domain was recombinantly produced. Purified OC2-HOX binding domain was next immobilized on a HisCap sensor chip and CSRM617 was analyzed at serial doubling concentrations maximized at 100 μM.\nFIG. 25A-FIG. 25C depict in accordance with various embodiments of the invention, FIG. 25A: (Left panel) representative sensorgram showing dose-dependent OC2-Compound CSRM617 interaction measured by surface plasmon resonance (SPR). Real-time binding was quantified by immobilizing biotinylated OC2 protein on the streptavidin biosensor with varying concentrations of Compound CSRM617 1.56-100 μm). (Right panel) OC2 binding to the experimentally determined OC2 binding site on the PEG10 promoter assayed by SPR. FIG. 25B: suppression of PEG10 protein expression in 22Rv1 tumors. FIG. 25C: suppression of PEG10 protein expression in 22Rv1 tumors.\n(§1) To assess whether OC2 might be inhibited with a small molecule, we developed a structural model of OC2 binding to DNA using homology modeling, and conducted a virtual screen of a chemical library consisting of […] compounds. 15 compounds were selected for biological activity testing using in vitro assays. One compound, compound CSRM617, was deemed to be biologically active and was selected for further study. […] To evaluate the selectivity of Compound CSRM617 for genes regulated by OC2, we generated gene expression microarray data from 22Rv1 cells treated with Compound CSRM617 for 4, 6 and 16 h. […] As described above, we identified PEG10 as a gene directly regulated by OC2 binding to the PEG10 promoter. […] The OC2 HOX fragment bound with high affinity (Kd=1 nM) to a DNA probe corresponding to the experimentally determined OC2 binding motif in the PEG10 promoter (FIG. 25A, right panel)."}, "[3]": {"system": "22RV1 prostate cancer cells", "experiment": "Apoptosis induction by cleaved Caspase-3 and PARP in 22RV1", "assay_type": "cell-based, human", "source_text": "GAPDH served as a loading control."}, "22Rv1 metastases": {"system": "22Rv1 metastases", "experiment": "22Rv1 intracardiac injection metastasis model", "assay_type": "in vivo, SCID mice", "conditions": "50 mg/kg daily; 4 w after intracardiac injection", "protocol": "FIG. 15 depicts in accordance with various embodiments of the invention, Compound CSRM617 inhibits metastasis. 22Rv1-luciferase labeled cells were injected intracardially and mice were randomized (n=7 per group) to receive vehicle or 50 mg/kg^−1 CSRM617, daily. BLI images of mice bearing metastatic tumors 4 w after the injection (left) and graphical representation of normalized BLI signals (right). Mean±SD (n=7 per group) is shown; **P<0.01.\n(§2) To determine whether Compound CSRM617 is effective against CRPC metastases, 22Rv1 cells were injected intracardially in SCID mice, and the animals were subsequently treated with the above dose of the compound for several weeks. […] To test for evidence of bioactivity of Compound CSRM617 in situ, PEG10 protein levels were measured using IHC followed by digital imaging in adrenal gland tumors."}, "C4-2": {"system": "C4-2", "experiment": "Cell-Titer GLO viability / proliferation in C4-2", "assay_type": "cell-based, human", "protocol": "(§3) ACTB and GAPDH expression levels were used for normalization. […] Cells were seeded in 96-well plates at 500 cells per well in a total volume of 100 ul media containing 10% FBS. Serially diluted compound CSRM617 was added to the cells 24 h later. After 48 h incubation, cell viability was assessed by Cell-Titer GLO (Promega). The values were normalized and IC50 was calculated using GraphPad Prism software. […] RWPE-1 is a benign prostate cell line."}, "OC2 target genes": {"system": "OC2 target genes", "experiment": "Gene expression microarray and GSEA of OC2 target genes in 22Rv1", "assay_type": "cell-based, human", "conditions": "10 μM, 4, 6 and 16 h", "protocol": "FIG. 14A-FIG. 14E depict in accordance with various embodiments of the invention, Compound CSRM617 perturbs OC2-regulated genes and suppresses 22Rv1 tumor growth in mice. To evaluate the specificity of CSRM617 for genes regulated by OC2, we generated gene expression microarray data from 22Rv1 cells treated with the compound at a concentration of 10 μM for 4, 6 and 16 h.\nas §1"}, "[4]": {"experiment": "Tolerability in treated mice (body weight, feeding, behavior)", "assay_type": "in vivo", "conditions": "50 mg/Kg/d", "protocol": "as §2"}, "PEG10 mRNA": {"system": "PEG10 mRNA", "experiment": "PEG10 mRNA expression in 22Rv1 (microarray)", "assay_type": "cell-based, human", "conditions": "10 μM, 4, 6 and 16 h", "protocol": "FIG. 16A-FIG. 16C depict in accordance with various embodiments of the invention, that OC2 activates PEG10, a driver of transdifferentiation from adenocarcinoma to neuroendocrine cancer. […] FIG. 16C: we have generated gene expression microarray data from 22Rv1 cells treated with the compound at a concentration of 10 μM for 4, 6 and 16 h. […] By inhibiting OC2 with compound CSRM617 the expression levels of the NE driver PEG10 are reduced.\nas §1"}, "PEG10 protein": {"system": "PEG10 protein", "experiment": "PEG10 protein by IHC and digital imaging in tumors of treated mice", "assay_type": "in vivo", "conditions": "adrenal gland tumors; IHC", "protocol": "as §2"}, "[5]": {"system": "human prostate cancer cell lines", "experiment": "Growth, apoptosis and IC50 across prostate cell lines versus OC2 expression", "assay_type": "cell-based", "conditions": "PC cell lines that express medium to high levels of OC2", "protocol": "as §3, §1"}, "22Rv1 xenografts": {"system": "22Rv1 xenografts", "experiment": "Subcutaneous 22Rv1 xenograft growth in mice", "assay_type": "in vivo", "conditions": "established 22Rv1 xenografts; 50 mg/Kg/d; 50 mg/kg/day"}, "LNCaP": {"system": "LNCaP", "experiment": "Cell proliferation in vitro in LNCaP", "assay_type": "cell-based, human", "protocol": "as §3"}, "22RV1": {"system": "22RV1", "experiment": "Cell-Titer GLO viability / proliferation in 22RV1", "assay_type": "cell-based, human", "protocol": "as §3"}}, "note": "“Also recorded” adds a separate entry of the source.", "data": [{"smiles": "NC(=O)C1CCCCN1C(=O)NCCc1ccc(O)c(O)c1O", "note": "(centres unmarked) [Compound 123]", "values": [{"measurement": "solubility compared with compound CSRM617", "setting": "[1]", "result": "improved solubility"}, {"measurement": "potency (IC50) compared with compound CSRM617", "setting": "22Rv1 cells", "result": "comparable activity"}, {"measurement": "cell viability", "setting": "22Rv1 cells", "result": "reduces cell viability"}, {"measurement": "direct binding to OC2", "setting": "[2]", "result": "directly bind OC2"}]}, {"smiles": "O=C(CNC(=O)Cc1ccc(O)c(O)c1O)NO", "note": "[Compound 843]", "values": [{"measurement": "solubility compared with compound CSRM617", "setting": "[1]", "result": "improved solubility"}, {"measurement": "potency (IC50) compared with compound CSRM617", "setting": "22Rv1 cells", "result": "comparable activity"}, {"measurement": "cell viability", "setting": "22Rv1 cells", "result": "reduces cell viability"}, {"measurement": "direct binding to OC2", "setting": "[2]", "result": "directly bind OC2"}]}, {"smiles": "N[C@@H](CO)C(=O)NNCc1ccc(O)c(O)c1O", "note": "[Compound 122]", "values": [{"measurement": "solubility compared with compound CSRM617", "setting": "[1]", "result": "improved solubility"}, {"measurement": "potency (IC50) compared with compound CSRM617", "setting": "22Rv1 cells", "result": "comparable activity"}, {"measurement": "cell viability", "setting": "22Rv1 cells", "result": "reduces cell viability"}, {"measurement": "direct binding to OC2", "setting": "[2]", "result": "directly bind OC2"}]}, {"smiles": "CC(=O)NCCC(=O)NCCc1ccc(O)c(O)c1O", "note": "[Compound 844]", "values": [{"measurement": "solubility compared with compound CSRM617", "setting": "[1]", "result": "improved solubility"}, {"measurement": "potency (IC50) compared with compound CSRM617", "setting": "22Rv1 cells", "result": "comparable activity"}, {"measurement": "cell viability", "setting": "22Rv1 cells", "result": "reduces cell viability"}]}, {"smiles": "O=C1CCC(C(=O)NCCc2ccc(O)c(O)c2O)CN1", "note": "(centres unmarked) [Compound 848]", "values": [{"measurement": "solubility compared with compound CSRM617", "setting": "[1]", "result": "improved solubility"}, {"measurement": "potency (IC50) compared with compound CSRM617", "setting": "22Rv1 cells", "result": "comparable activity"}, {"measurement": "cell viability", "setting": "22Rv1 cells", "result": "reduces cell viability"}]}, {"smiles": "N[C@@H](CO)C(=O)N/N=C/c1ccc(O)c(O)c1O", "note": "[CSRM617]", "values": [{"measurement": "apoptosis (cleaved Caspase-3 and PARP)", "setting": "[3]", "result": "induces apoptosis"}, {"measurement": "onset and growth of diffuse metastases (BLI)", "setting": "22Rv1 metastases", "result": "reduces significantly the onset and growth of diffuse metastases; also recorded: inhibited onset and growth of diffuse metastases"}, {"measurement": "cell proliferation in vitro", "setting": "C4-2", "result": "inhibited cell proliferation"}, {"measurement": "sensitivity (IC50) to compound", "setting": "C4-2; 48 h incubation", "result": "highest sensitivity"}, {"measurement": "perturbation of OC2 target genes (GSEA)", "setting": "OC2 target genes", "result": "significant perturbation of OC2 target genes"}, {"measurement": "body weight", "setting": "[4]", "result": "did not affect body weight"}, {"measurement": "feeding patterns or behavior", "setting": "[4]", "result": "did not affect"}, {"measurement": "PEG10 mRNA expression", "setting": "PEG10 mRNA", "result": "downregulated in a time-dependent manner"}, {"measurement": "PEG10 protein levels in tumors", "setting": "PEG10 protein", "result": "significantly down-regulated"}, {"measurement": "apoptosis", "setting": "[5]", "result": "induced apoptosis"}, {"measurement": "cell growth", "setting": "[5]", "result": "inhibited cell growth"}, {"measurement": "subcutaneous tumor growth", "setting": "22Rv1 xenografts", "result": "reduces tumor growth; also recorded: inhibited subcutaneous growth"}, {"measurement": "direct binding to OC2", "setting": "[2]", "result": "binds directly to OC2"}, {"measurement": "Kd", "setting": "[2]; SPR, serial doubling concentrations up to 100 μM", "result": 7.43, "unit": "µM"}, {"measurement": "cell proliferation in vitro", "setting": "LNCaP", "result": "inhibited cell proliferation"}, {"measurement": "sensitivity (IC50) to compound", "setting": "22RV1; 22RV1, 48 h incubation", "result": "highest sensitivity"}, {"measurement": "cell proliferation in vitro", "setting": "22RV1; 22Rv1", "result": "inhibited cell proliferation"}]}]}
